In PubChem BioAssay AID330 (DTP/NCI, 2004):
Several values for one entry are separate records, joined by “and”; a condition that tells them apart may be missing. Equal values may be shown once. Inconclusive results and toxic doses are left out. The calls were made as follows: active = survival T/C of 150% or more; inactive = T/C below 125% in these data.

System: P388 leukemia ip, CD2F1 mice, survival T/C
Assay: NCI In Vivo Anticancer Drug Screen. Data for tumor model P388 Leukemia (intraperitoneal) in CD2F1 (CDF1) mice
Settings: endpoint: median survival time, higher = longer survival
Summary of the method: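 Mice carrying the transplanted tumor received test compound or vehicle. Survival was recorded in each group, and the value is the treated-group measurement divided by that of the vehicle-treated control group.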

[1] = dose: 50.0 mg/kg/injection, schedule: Q01DX001 (ip), vehicle: Klucel (hydroxypropylcellulose) (HPC)
[2] = dose: 100.0 mg/kg/injection, schedule: Q01DX001 (ip), vehicle: Klucel (hydroxypropylcellulose) (HPC)
[3] = dose: 200.0 mg/kg/injection, schedule: Q01DX001 (ip), vehicle: Klucel (hydroxypropylcellulose) (HPC)
[4] = dose: 25.0 mg/kg/injection, schedule: Q01DX005 (ip), vehicle: saline with Tween-80
[5] = dose: 50.0 mg/kg/injection, schedule: Q01DX005 (ip), vehicle: saline with Tween-80
[6] = dose: 100.0 mg/kg/injection, schedule: Q01DX005 (ip), vehicle: saline with Tween-80
[7] = dose: 200.0 mg/kg/injection, schedule: Q01DX005 (ip), vehicle: saline with Tween-80
[8] = dose: 6.25 mg/kg/injection, schedule: Q01DX009 (ip), vehicle: saline
[9] = dose: 12.5 mg/kg/injection, schedule: Q01DX009 (ip), vehicle: saline
[10] = dose: 25.0 mg/kg/injection, schedule: Q01DX009 (ip), vehicle: saline
[11] = dose: 50.0 mg/kg/injection, schedule: Q01DX009 (ip), vehicle: saline with Tween-80
[12] = dose: 100.0 mg/kg/injection, schedule: Q01DX009 (ip), vehicle: saline with Tween-80
[13] = dose: 200.0 mg/kg/injection, schedule: Q01DX009 (ip), vehicle: saline with Tween-80

Measured: T/C

Cc1ccccc1N=Nc1ccc(N(CCCl)CCCl)cc1
inactive: [1] 100 % of control | [2] 115 % of control | [3] 100 % of control

O=c1[nH]c2cc3c(cc2n2cccc12)oc1ccccc13
inactive: [4] 98 % of control | [5] 100 % of control | [6] 100 % of control | [7] 100 % of control

CC1=C(C)CN(CCc2c[nH]c3ccccc23)C(C#N)C1 (centres undefined)
inactive: dose: 12.5 mg/kg/injection, schedule: Q01DX005 (ip), vehicle: saline with Tween-80 102 % of control | [4] 108 % of control | [5] 102 % of control and 117 % of control

COc1cc2c(c(OC)c1OC)-c1cc3c(cc1C(OC1c4cc5c(cc4-c4c(cc(OC)c(OC)c4OC)CC4C(=O)OCC41)OCO5)C1COC(=O)C1C2)OCO3 (centres undefined)
inactive: dose: 2.5 mg/kg/injection, schedule: Q01DX005 (ip), vehicle: Klucel (hydroxypropylcellulose) (HPC) 109 % of control | dose: 5.0 mg/kg/injection, schedule: Q01DX005 (ip), vehicle: Klucel (hydroxypropylcellulose) (HPC) 98 % of control | dose: 10.0 mg/kg/injection, schedule: Q01DX005 (ip), vehicle: Klucel (hydroxypropylcellulose) (HPC) 92 % of control | dose: 20.0 mg/kg/injection, schedule: Q01DX005 (ip), vehicle: Klucel (hydroxypropylcellulose) (HPC) 109 % of control

O=C(/C=C/c1ccc([N+](=O)[O-])cc1)Cc1ccccc1
inactive: dose: 100.0 mg/kg/injection, schedule: Q04DX002 (ip), vehicle: saline 97 % of control | dose: 200.0 mg/kg/injection, schedule: Q04DX002 (ip), vehicle: saline 104 % of control | dose: 400.0 mg/kg/injection, schedule: Q04DX002 (ip), vehicle: saline 100 % of control

O=C1Nc2ccccc2C(=O)C1=Ic1ccccc1
inactive: dose: 15.0 mg/kg/injection, schedule: Q01DX005 (ip), vehicle: Klucel (hydroxypropylcellulose) (HPC) 101 % of control | dose: 30.0 mg/kg/injection, schedule: Q01DX005 (ip), vehicle: Klucel (hydroxypropylcellulose) (HPC) 104 % of control | dose: 50.0 mg/kg/injection, schedule: Q01DX005 (ip), vehicle: Klucel (hydroxypropylcellulose) (HPC) 94 % of control | dose: 60.0 mg/kg/injection, schedule: Q01DX005 (ip), vehicle: Klucel (hydroxypropylcellulose) (HPC) 104 % of control and 88 % of control | dose: 100.0 mg/kg/injection, schedule: Q01DX005 (ip), vehicle: Klucel (hydroxypropylcellulose) (HPC) 91 % of control

CCCCCCN(CCCCCC)/C(N)=N/O
inactive: dose: 5.0 mg/kg/injection, schedule: Q01DX009 (ip), vehicle: saline with Tween-80 113 % of control | dose: 10.0 mg/kg/injection, schedule: Q01DX009 (ip), vehicle: saline with Tween-80 105 % of control | dose: 20.0 mg/kg/injection, schedule: Q01DX009 (ip), vehicle: saline with Tween-80 116 % of control

COc1cc(C(=O)O)c2c(c1C)OC(=O)c1c(C)cc(O)c(C=O)c1O2
inactive: [8] 119 % of control | [9] 119 % of control | [10] 100 % of control | dose: 26.0 mg/kg/injection, schedule: Q04DX003 (ip), vehicle: saline 116 % of control | dose: 40.0 mg/kg/injection, schedule: Q04DX003 (ip), vehicle: saline 112 % of control | dose: 60.0 mg/kg/injection, schedule: Q04DX003 (ip), vehicle: saline 119 % of control

CCn1cc(C(=O)O)c(=O)c2ccc(C)[n+](CCSC(=N)N)c21
inactive: dose: 100.0 mg/kg/injection, schedule: Q04DX002 (ip), vehicle: saline with Tween-80 104 % of control | dose: 200.0 mg/kg/injection, schedule: Q04DX002 (ip), vehicle: saline with Tween-80 99 % of control | dose: 400.0 mg/kg/injection, schedule: Q04DX002 (ip), vehicle: saline with Tween-80 100 % of control

CCCCC(NC(=O)CC)C(=O)O (centres undefined)
inactive: [8] 107 % of control | [9] 94 % of control | [10] 98 % of control | dose: 200.0 mg/kg/injection, schedule: Q01DX009 (ip), vehicle: saline 100 % of control

COC(=O)/C=C(\I)C(=O)OC
inactive: dose: 3.13 mg/kg/injection, schedule: Q01DX009 (ip), vehicle: saline with Tween-80 104 % of control | dose: 6.25 mg/kg/injection, schedule: Q01DX009 (ip), vehicle: saline with Tween-80 101 % of control | dose: 12.5 mg/kg/injection, schedule: Q01DX009 (ip), vehicle: saline with Tween-80 92 % of control

CCCCCCC(=O)/C=C/c1cc(OC)c(OC)c(OC)c1
inactive: [11] 101 % of control | [12] 96 % of control | [13] 92 % of control

C(=NCc1ccccc1)c1ccccc1-c1ccccc1C=NCc1ccccc1
inactive: dose: 12.5 mg/kg/injection, schedule: Q01DX009 (ip), vehicle: Klucel (hydroxypropylcellulose) (HPC) 92 % of control | dose: 50.0 mg/kg/injection, schedule: Q01DX009 (ip), vehicle: Klucel (hydroxypropylcellulose) (HPC) 86 % of control | dose: 100.0 mg/kg/injection, schedule: Q01DX009 (ip), vehicle: Klucel (hydroxypropylcellulose) (HPC) 100 % of control

COc1cc(OC)c(OC)cc1/C=C1/N=C(c2ccccc2)OC1=O
inactive: [11] 99 % of control | [12] 92 % of control | [13] 93 % of control

CCCCCCC[CH2][Sn]([Cl])([CH2]CCCCCCC)[O][Sn]([CH2]CCCCCCC)([CH2]CCCCCCC)[O]C
inactive: dose: 100.0 mg/kg/injection, schedule: Q04DX003 (ip), vehicle: saline 101 % of control | dose: 200.0 mg/kg/injection, schedule: Q04DX003 (ip), vehicle: saline 96 % of control | dose: 400.0 mg/kg/injection, schedule: Q04DX003 (ip), vehicle: saline 98 % of control

Cc1c(N)n[nH]c1-c1ccccc1
inactive: [1] 100 % of control | [2] 99 % of control | [3] 106 % of control

O=S(=O)(C1CC1c1ccccc1)C1CC1c1ccc(F)cc1 (centres undefined)
inactive: [5] 100 % of control | [6] 95 % of control | [7] 101 % of control

Cc1[nH]c(C(=O)O)cc(=O)c1C
inactive: dose: 25.0 mg/kg/injection, schedule: Q01DX009 (ip), vehicle: other 103 % of control | dose: 50.0 mg/kg/injection, schedule: Q01DX009 (ip), vehicle: other 103 % of control | dose: 100.0 mg/kg/injection, schedule: Q01DX009 (ip), vehicle: other 101 % of control | dose: 200.0 mg/kg/injection, schedule: Q01DX009 (ip), vehicle: other 99 % of control | dose: 400.0 mg/kg/injection, schedule: Q01DX009 (ip), vehicle: other 97 % of control

CC1SC(=S)N(c2ccccc2)C1=O (centres undefined)
inactive: [11] 104 % of control | dose: 50.0 mg/kg/injection, schedule: Q04DX003 (ip), vehicle: saline with Tween-80 112 % of control | [12] 100 % of control | dose: 100.0 mg/kg/injection, schedule: Q04DX003 (ip), vehicle: saline with Tween-80 108 % of control | [13] 109 % of control | dose: 200.0 mg/kg/injection, schedule: Q04DX003 (ip), vehicle: saline with Tween-80 108 % of control

NC(=O)c1ccccc1NC(=O)c1ccccc1C(=O)O
inactive: [11] 100 % of control and 101 % of control | [12] 99 % of control and 103 % of control | [13] 101 % of control and 103 % of control | dose: 400.0 mg/kg/injection, schedule: Q01DX009 (ip), vehicle: saline with Tween-80 100 % of control and 101 % of control
